Where two headings read alike, the source gives them in different places.
What was measured:
[1] = test system: Italian ryegrass (Lolium multiflorum); assay: Test C postemergence; format: in vivo
How it was run: (§1)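 Greenhouse herbicide screen, visual readout. Compound in solvent/surfactant applied preemergence at planting or postemergence to 1- to 4-leaf plants; assessed at 12–14 days on a 0–100 control scale.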

[2] = test system: blackgrass (Alopecurus myosuroides); assay: Test C postemergence; format: in vivo
How it was run: as §1

[3] = test system: windgrass (Apera spica-venti); assay: Test C postemergence; format: in vivo
How it was run: as §1

[4] = test system: downy brome (Bromus tectorum); assay: Test C postemergence; format: in vivo
How it was run: as §1

[5] = test system: canarygrass (Phalaris minor); assay: Test C postemergence; format: in vivo
How it was run: as §1

wild oat (Avena fatua) = assay: Test C postemergence; format: in vivo
How it was run: as §1

[6] = test system: winter barley (Hordeum vulgare); assay: Test C postemergence; format: in vivo
How it was run: as §1

[7] = test system: wheat (Triticum aestivum); assay: Test C postemergence; format: in vivo
How it was run: as §1

[8] = test system: green foxtail (Setaria viridis); assay: Test C postemergence; format: in vivo
How it was run: as §1

[9] = test system: yellow nutsedge (Cyperus esculentus); assay: Test C pre/postemergence; format: in vivo; conditions: Cyperus; for pest or weed control at 31 g/ha: 31 g ai/ha; for pest or weed control at 62 g/ha: 62 g ai/ha
How it was run: as §1

soybean (Glycine max) = assay: Test C pre/postemergence; format: in vivo; conditions: Glycine max; for plant injury at 31 g/ha: 31 g ai/ha; for plant injury at 62 g/ha: 62 g ai/ha
How it was run: as §1

[10] = test system: crabgrass (Digitaria sanguinalis); assay: Test C pre/postemergence; format: in vivo; conditions: Digitaria sanguinalis; for pest or weed control at 31 g/ha: 31 g ai/ha; for pest or weed control at 62 g/ha: 62 g ai/ha; for pest or weed control at 125 g/ha: 125 g ai/ha
How it was run: as §1

[11] = post-emergence, Postemergence, read-out: Plant response rating (scale of 0 to 100), Nutsedge, Yellow
[12] = pre-emergence, Preemergence, scale 0 to 100, 0 no effect, 100 complete control, read-out: Plant response rating, Nutsedge, Yellow
[13] = post-emergence, Postemergence, read-out: Plant response rating (scale of 0 to 100), Soybean
[14] = pre-emergence, Preemergence, scale 0 to 100, 0 no effect, 100 complete control, read-out: Plant response rating, Soybean
[15] = post-emergence, Postemergence, read-out: Plant response rating (scale of 0 to 100), Crabgrass
[16] = pre-emergence, Preemergence, scale 0 to 100, 0 no effect, 100 complete control, read-out: Plant response rating, Crabgrass

Nc1nc(C2CC2)nc(C(=O)OCc2ccccc2)c1Cl [Compound 78, phenylmethyl 6-amino-5-chloro-2-cyclopropyl-4-pyrimidinecarboxylate]
melting point: 126 to 128 °C
Plant response rating (scale of 0 to 100), Ryegrass, Italian ([1]; 31 g ai/ha): 0
Plant response rating (scale of 0 to 100), Ryegrass, Italian ([1]; 62 g ai/ha): 10
Plant response rating, Ryegrass, Italian ([1]; 250 g ai/ha, scale 0 to 100): 25
pest or weed control at 125 g/ha ([1]; Lolium multiflorum, post-emergence, 125 g ai/ha, scale 0 to 100 (0 no effect, 100 complete control), read-out: Ryegrass, Italian plant response rating): 20%
Plant response rating (scale of 0 to 100), Blackgrass ([2]; 31 g ai/ha): 0
Plant response rating (scale of 0 to 100), Blackgrass ([2]; 62 g ai/ha): 5
Plant response rating, Blackgrass ([2]; 250 g ai/ha, scale 0 to 100): 50
pest or weed control at 125 g/ha ([2]; Alopecurus myosuroides, post-emergence, 125 g ai/ha, scale 0 to 100 (0 no effect, 100 complete control), read-out: Blackgrass plant response rating): 5%
Plant response rating (scale of 0 to 100), Windgrass ([3]; 31 g ai/ha): 5
Plant response rating (scale of 0 to 100), Windgrass ([3]; 62 g ai/ha): 30
Plant response rating, Windgrass ([3]; 250 g ai/ha, scale 0 to 100): 40
pest or weed control at 125 g/ha ([3]; Apera spica-venti, post-emergence, 125 g ai/ha, scale 0 to 100 (0 no effect, 100 complete control), read-out: Windgrass plant response rating): 30%
Plant response rating (scale of 0 to 100), Bromegrass, Downy ([4]; 31 g ai/ha): 5
Plant response rating (scale of 0 to 100), Bromegrass, Downy ([4]; 62 g ai/ha): 10
Plant response rating, Bromegrass, Downy ([4]; 250 g ai/ha, scale 0 to 100): 55
pest or weed control at 125 g/ha ([4]; Bromus tectorum, post-emergence, 125 g ai/ha, scale 0 to 100 (0 no effect, 100 complete control), read-out: Bromegrass, Downy plant response rating): 15%
Plant response rating (scale of 0 to 100), Canarygrass ([5]; 31 g ai/ha): 0
Plant response rating (scale of 0 to 100), Canarygrass ([5]; 62 g ai/ha): 0
Plant response rating, Canarygrass ([5]; 250 g ai/ha, scale 0 to 100): 0
pest or weed control at 125 g/ha ([5]; Phalaris minor, post-emergence, 125 g ai/ha, scale 0 to 100 (0 no effect, 100 complete control), read-out: Canarygrass plant response rating): 0%
Plant response rating (scale of 0 to 100), Oat, Wild (wild oat (Avena fatua); 31 g ai/ha): 5
Plant response rating (scale of 0 to 100), Oat, Wild (wild oat (Avena fatua); 62 g ai/ha): 10
Plant response rating, Oat, Wild (wild oat (Avena fatua); 250 g ai/ha, scale 0 to 100): 60
pest or weed control at 125 g/ha (wild oat (Avena fatua); Avena fatua, post-emergence, 125 g ai/ha, scale 0 to 100 (0 no effect, 100 complete control), read-out: Oat, Wild plant response rating): 60%
Plant response rating (scale of 0 to 100), Barley ([6]; 31 g ai/ha): 5
Plant response rating, Barley ([6]; 250 g ai/ha, scale 0 to 100): 90
plant injury at 62 g/ha ([6]; Hordeum vulgare, post-emergence, 62 g ai/ha, scale 0 to 100 (0 no effect, 100 complete control), read-out: Barley plant response rating): 5%
plant injury at 125 g/ha ([6]; Hordeum vulgare, post-emergence, 125 g ai/ha, scale 0 to 100 (0 no effect, 100 complete control), read-out: Barley plant response rating): 30%
Plant response rating (scale of 0 to 100), Wheat ([7]; 31 g ai/ha): 20
Plant response rating (scale of 0 to 100), Wheat ([7]; 62 g ai/ha): 20
Plant response rating, Wheat ([7]; 250 g ai/ha, scale 0 to 100): 55
plant injury at 125 g/ha ([7]; Triticum aestivum, post-emergence, 125 g ai/ha, scale 0 to 100 (0 no effect, 100 complete control), read-out: Wheat plant response rating): 30%
Plant response rating (scale of 0 to 100), Foxtail, Green ([8]; 31 g ai/ha): 25
Plant response rating (scale of 0 to 100), Foxtail, Green ([8]; 62 g ai/ha): 40
Plant response rating, Foxtail, Green ([8]; 250 g ai/ha, scale 0 to 100): 75
pest or weed control at 125 g/ha ([8]; Setaria viridis, post-emergence, 125 g ai/ha, scale 0 to 100 (0 no effect, 100 complete control), read-out: Foxtail, Green plant response rating): 70%
pest or weed control at 31 g/ha [9, 11]: 0%
pest or weed control at 62 g/ha [9, 11]: 0%
pest or weed control at 125 g/ha ([9]; post-emergence, Postemergence, 125 g ai/ha, scale 0 to 100 (0 no effect, 100 complete control), read-out: Nutsedge, Yellow plant response rating): 0%
pest or weed control at 250 g/ha ([9]; post-emergence, Postemergence, 250 g ai/ha, scale 0 to 100, read-out: Plant response rating, Nutsedge, Yellow): 0%
pest or weed control at 16 g/ha ([9]; pre-emergence, Preemergence, 16 g ai/ha, scale 0 to 100, 0 no effect, 100 complete control, read-out: Plant response rating, Nutsedge, Yellow): 0%
pest or weed control at 31 g/ha [9, 12]: 0%
pest or weed control at 62 g/ha [9, 12]: 0%
plant injury at 31 g/ha (soybean (Glycine max); [13]): 90%
plant injury at 62 g/ha (soybean (Glycine max); [13]): 100%
plant injury at 125 g/ha (soybean (Glycine max); post-emergence, Postemergence, 125 g ai/ha, scale 0 to 100 (0 no effect, 100 complete control), read-out: Soybean plant response rating): 100%
plant injury at 250 g/ha (soybean (Glycine max); post-emergence, Postemergence, 250 g ai/ha, scale 0 to 100, read-out: Plant response rating, Soybean): 100%
plant injury at 16 g/ha (soybean (Glycine max); pre-emergence, Preemergence, 16 g ai/ha, scale 0 to 100, 0 no effect, 100 complete control, read-out: Plant response rating, Soybean): 30%
plant injury at 31 g/ha (soybean (Glycine max); [14]): 70%
plant injury at 62 g/ha (soybean (Glycine max); [14]): 80%
pest or weed control at 31 g/ha [10, 15]: 55%
pest or weed control at 62 g/ha [10, 15]: 90%
pest or weed control at 125 g/ha ([10]; post-emergence, Postemergence, scale 0 to 100 (0 no effect, 100 complete control), read-out: Crabgrass plant response rating): 90%
pest or weed control at 250 g/ha ([10]; post-emergence, Postemergence, 250 g ai/ha, scale 0 to 100, read-out: Plant response rating, Crabgrass): 90%
pest or weed control at 16 g/ha ([10]; pre-emergence, Preemergence, 16 g ai/ha, scale 0 to 100, 0 no effect, 100 complete control, read-out: Plant response rating, Crabgrass): 0%
pest or weed control at 31 g/ha [10, 16]: 5%
pest or weed control at 62 g/ha [10, 16]: 40%
pest or weed control at 125 g/ha ([10]; pre-emergence, Preemergence, scale 0 to 100, read-out: Plant response rating, Crabgrass): 45%

Reference: patent US8802597B2, “Herbicidal pyrimidines” (E I du Pont de Nemours and Company, priority 2003, dated 2014)
